From patent publication US10780090B2, “Heteroaryl compounds useful as inhibitors of SUMO activating enzyme” (Millennium Pharmaceuticals, Inc., priority 2014, dated 2020)

Biological target: recombinant human SAE enzyme (Homo sapiens (Human), UniProt Q9UBT2)
Assay: SAE HTRF enzyme assay
Assay type: biochemical
Settings: for inhibition at 0.111 µM: read-out: Percent Inhibition
Description: Example 215: SAE HTRF enzyme assay
The SAE enzymatic reaction totals 50 μl and contains 50 mM HEPES Hemisodium (pH 7.5), 0.05% BSA, 5 mM MgCl2, 0.5 μM ATP, 250 μM GSH, 0.01 μM Ubc9-GST, 0.125 μM Sumo-Flag and 0.11 nM recombinant human SAE enzyme. The enzymatic reaction mixture, with and without inhibitor, Is incubated at 24° C. for 105 min in a 384-well plate before termination with […] of Stop/Detection buffer (0.1M HEPES Hemisodium pH 7.5, 0.05% Tween20, 20 mM EDTA, 410 mM KF, 0.53 nM Europium-Cryptate labeled monoclonal anti-Flag M2 Antibody (CisBio International) and 8.125 μg/ml PHYCOLINK goat anti-GST allophycocyanin (XL-APC) antibody (Prozyme)). After incubation for 2 hours at 24° C., quantification of FRET is performed on the Pherostar™ (BMG Labtech). Percentage inhibition values at a single concentration or enzyme inhibition (IC50) values are determined from those curves. One skilled in the art will appreciate that the values generated either as percentage inhibition at a single concentration or IC50 values are subject to experimental variation.

recombinant human SAE enzyme, sequence (Q9UBT2 whole entry): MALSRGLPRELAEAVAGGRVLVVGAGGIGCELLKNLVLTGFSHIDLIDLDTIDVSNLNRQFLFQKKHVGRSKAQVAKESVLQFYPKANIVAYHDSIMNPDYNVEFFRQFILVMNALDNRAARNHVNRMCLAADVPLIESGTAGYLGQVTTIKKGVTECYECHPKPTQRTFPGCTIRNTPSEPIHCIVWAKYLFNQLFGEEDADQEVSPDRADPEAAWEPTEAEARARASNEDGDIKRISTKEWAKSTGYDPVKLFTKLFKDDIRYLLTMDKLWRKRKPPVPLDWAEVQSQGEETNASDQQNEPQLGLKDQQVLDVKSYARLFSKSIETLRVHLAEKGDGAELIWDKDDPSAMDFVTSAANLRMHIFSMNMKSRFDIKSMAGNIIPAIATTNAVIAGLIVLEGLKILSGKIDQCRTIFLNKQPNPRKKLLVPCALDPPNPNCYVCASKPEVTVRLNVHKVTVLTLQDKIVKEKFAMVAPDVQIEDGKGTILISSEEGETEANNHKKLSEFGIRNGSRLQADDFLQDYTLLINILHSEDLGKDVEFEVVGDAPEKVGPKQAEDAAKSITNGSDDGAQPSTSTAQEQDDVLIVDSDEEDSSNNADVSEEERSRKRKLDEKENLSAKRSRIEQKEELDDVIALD
recombinant human SAE enzyme, sequence (Q9UBE0 whole entry partner): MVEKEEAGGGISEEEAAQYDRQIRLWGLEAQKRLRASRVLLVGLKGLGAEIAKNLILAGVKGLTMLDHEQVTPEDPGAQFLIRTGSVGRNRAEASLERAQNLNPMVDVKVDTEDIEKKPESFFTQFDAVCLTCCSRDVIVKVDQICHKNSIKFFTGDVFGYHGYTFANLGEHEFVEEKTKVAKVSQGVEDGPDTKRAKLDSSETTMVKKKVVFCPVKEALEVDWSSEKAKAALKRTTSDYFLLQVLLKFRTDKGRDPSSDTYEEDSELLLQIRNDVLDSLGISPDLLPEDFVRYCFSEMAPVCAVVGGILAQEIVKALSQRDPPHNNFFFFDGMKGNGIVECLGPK

Q: With `NS(=O)(=O)OC[C@H]1C[C@@H](Nc2ncncc2C(=O)c2cc([C@@H]3NCCc4ccc(Cl)cc43)cs2)C[C@@H]1O` (mixture of isomers) [I-274, [(1R,2S,4R)-4-{[5-({4-[(1R)-7-chloro-1,2,3,4-tetrahydroisoquinolin-1-yl]-2-thienyl}carbonyl)pyrimidin-4-yl]amino}-2-hydroxycyclopentyl]methyl sulfamate and [(1R,2S,4R)-4-{[5-({4-[(1S)-7-chloro-1,2,3,4-tetrahydroisoquinolin-1-yl]-2-thienyl}carbonyl)pyrimidin-4-yl]amino}-2-hydroxycyclopentyl]methyl sulfamate] as the compound, how does the “Percent Inhibition” value (Concentration 0.111 μM) read?
A: The value was 100.

Q: What about the IC50 (class symbols A/B/C) of the same compound?
A: Its IC50 is < 10 nM.

Q: Which “Percent Inhibition” value (Concentration 0.111 μM) does the source give for `NS(=O)(=O)OCC1CC(Nc2ncncc2C(=O)c2cc(C3OCCc4ccc(Cl)nc43)c(Cl)s2)CC1O` (mixture of isomers) [I-276, [(1R,2S,4R)-4-{[5-({5-chloro-4-[(8S)-2-chloro-5,8-dihydro-6H-pyrano[3,4-b]pyridin-8-yl]-2-thienyl}carbonyl)pyrimidin-4-yl]amino}-2-hydroxycyclopentyl]methyl sulfamate and [(1R,2S,4R)-4-{[5-({5-chloro-4-[(8R)-2-chloro-5,8-dihydro-6H-pyrano[3,4-b]pyridin-8-yl]-2-thienyl}carbonyl)pyrimidin-4-yl]amino}-2-hydroxycyclopentyl]methyl sulfamate] here?
A: The value was 98.

Q: And the IC50 (class symbols A/B/C)?
A: The IC50 was < 10 nM.

Q: For `NS(=O)(=O)OC[C@H]1C[C@@H](Nc2ncncc2C(=O)c2cc(Cc3cncc(Cl)c3)cs2)C[C@@H]1O` [I-210, [(1R,2S,4R)-4-{[5-({4-[(5-chloropyridin-3-yl)methyl]-2-thienyl}carbonyl)pyrimidin-4-yl]amino}-2-hydroxycyclopentyl]methyl sulfamate], which inhibition at 0.111 µM (Concentration 0.111 μM) is on record?
A: The inhibition at 0.111 µM was 50%.

Q: And the IC50 (class symbols A/B/C)?
A: Its IC50 is 100 to 1000 nM.

Q: `Cc1ccc2ccn(Cc3csc(C(=O)c4cncnc4N[C@@H]4C[C@H](COS(N)(=O)=O)[C@@H](O)C4)c3)c2c1` [I-132, [(1R,2S,4R)-2-hydroxy-4-{[5-({4-[(6-methyl-1H-indol-1-yl)methyl]-2-thienyl}carbonyl)pyrimidin-4-yl]amino}cyclopentyl]methyl sulfamate] was tested. Which inhibition at 0.111 µM (Concentration 0.111 μM) did it give?
A: The inhibition at 0.111 µM was 96%.

Q: And the IC50 (class symbols A/B/C)?
A: Its IC50 is < 10 nM.

Q: For `Cc1sc(C(=O)c2cncnc2N[C@@H]2C[C@H](COS(N)(=O)=O)[C@@H](O)[C@@H]2F)cc1[C@@H]1OCCc2ccccc21` (single isomer, unassigned) [I-271a, [(1R,2R,3R,4R)-4-{([5-({4-[(1R)-3,4-dihydro-1H-isochromen-1-yl]-5-methyl-2-thienyl)carbonyl)pyrimidin-4-yl]amino}-3-fluoro-2-hydroxycyclopentyl]methyl sulfamate or [(1R,2R,3R,4R)-4-{([5-({4-[(1S)-3,4-dihydro-1H-isochromen-l-yl]-5-methyl-2-thienyl}carbonyl)pyrimidin-4-yl]amino}-3-fluoro-2-hydroxycyclopentyl]methyl sulfamate], which “Percent Inhibition” value (Concentration 0.111 μM) is on record?
A: Its value is 99.

Q: And the IC50 (class symbols A/B/C)?
A: Its IC50 is < 10 nM.

Q: Which results are given for `NS(=O)(=O)OC[C@H]1C[C@@H](Nc2ncncc2C(=O)c2cc([C@H](O)c3cc(Cl)ccc3Cl)c(Cl)s2)C[C@@H]1O` (mixture of isomers) [I-149, [(1R,2S,4R)-4-{[5-({5-chloro-4-[(R)-(2,5-dichlorophenyl)(hydroxy)methyl]-2-thienyl}carbonyl)pyrimidin-4-yl]amino}-2-hydroxycyclopentyl]methyl sulfamate and [(1R,2S,4R)-4-{[5-({5-chloro-4-[(S)-(2,5-dichlorophenyl)(hydroxy)methyl]-2-thienyl}carbonyl)pyrimidin-4-yl]amino}-2-hydroxycyclopentyl]methyl sulfamate]?
A: Percent Inhibition (Concentration 0.111 μM): 97; IC50 (class symbols A/B/C): < 10 nM

Q: What does the source list for `NS(=O)(=O)OC[C@H]1C[C@@H](Nc2ncncc2C(=O)c2cc(S(=O)(=O)c3cccc(Cl)c3)c(Cl)s2)C[C@@H]1O` [I-203, [(1R,2S,4R)-4-{[5-({5-chloro-4-[(3-chlorophenyl)sulfonyl]-2-thienyl}carbonyl)pyrimidin-4-yl]amino}-2-hydroxycyclopentyl]methyl sulfamate]?
A: inhibition at 0.111 µM (Concentration 0.111 μM): 58%; IC50 (class symbols A/B/C): 10 to 100 nM

Q: With `NS(=O)(=O)OC[C@H]1C[C@@H](Nc2ncncc2C(=O)c2cc(Cc3cccc(OC(F)F)c3)cs2)C[C@@H]1O` [I-113, [(1R,2S,4R)-4-{[5-({4-[3-(difluoromethoxy)benzyl]-2-thienyl}carbonyl)pyrimidin-4-yl]amino}-2-hydroxycyclopentyl]methyl sulfamate] as the compound, how does the inhibition at 0.111 µM (Concentration 0.111 μM) read?
A: Its inhibition at 0.111 µM is 97%.

Q: What about the IC50 (class symbols A/B/C) of the same compound?
A: The IC50 was < 10 nM.

Q: `COCc1sc(C(=O)c2cncnc2N[C@@H]2C[C@H](COS(N)(=O)=O)[C@@H](O)C2)cc1Cc1cccc(Cl)c1` [I-44, {(1R,2S,4R)-4-[(5-{[4-(3-chlorobenzyl)-5-(methoxymethyl)-2-thienyl]carbonyl}pyrimidin-4-yl)amino]-2-hydroxycyclopentyl}methyl sulfamate] was tested. Which inhibition at 0.111 µM (Concentration 0.111 μM) did it give?
A: Its inhibition at 0.111 µM is 100%.

Q: What about the IC50 (class symbols A/B/C) of the same compound?
A: Its IC50 is < 10 nM.

Q: What does the source list for `Cc1sc(C(=O)c2cncnc2N[C@@H]2C[C@H](COS(N)(=O)=O)[C@@H](O)C2)cc1Cn1cccn1` [I-109, {(1R,2S,4R)-2-Hydroxy-4-[(5-{[5-methyl-4-(1H-pyrazol-1-ylmethyl)-2-thienyl]carbonyl}pyrimidin-4-yl)amino]cyclopentyl)methyl sulfamate]?
A: inhibition at 0.111 µM (Concentration 0.111 μM): 96%; IC50 (class symbols A/B/C): < 10 nM

Q: With `Cc1sc(C(=O)c2cncnc2N[C@@H]2C[C@H](COS(N)(=O)=O)[C@@H](O)C2)cc1[C@H]1OCCc2ccccc21` [I-256a, [(1R,2S,4R)-4-{[5-({4-[(1S)-3,4-dihydro-1H-isochromen-1-yl]-5-methyl-2-thienyl}carbonyl)pyrimidin-4-yl]amino}-2-hydroxycyclopentyl]methyl sulfamate] as the compound, how does the inhibition at 0.111 µM (Concentration 0.111 μM) read?
A: Its inhibition at 0.111 µM is 94%.

Q: What about the IC50 (class symbols A/B/C) of the same compound?
A: Its IC50 is < 10 nM.

Q: Which “Percent Inhibition” value (SAE inhibition at compound concentration 0.111 μM) does the source give for `Cc1sc(C(=O)c2cncnc2N[C@@H]2C[C@H](COS(N)(=O)=O)[C@@H](O)C2)cc1[C@@H]1OCCc2cnc(Cl)cc21` (mixture of isomers) [I-316, [(1R,2S,4R)-4-{[5-({4-[(1R)-7-chloro-3,4-dihydro-1H-pyrano[4,3-c]pyridin-1-yl]-5-methyl-2-thienyl}carbonyl)pyrimidin-4-yl]amino}-2-hydroxycyclopentyl]methyl sulfamate and [(1R,2S,4R)-4-{[5-({4-[(1S)-7-chloro-3,4-dihydro-1H-pyrano[4,3-c]pyridin-1-yl]-5-methyl-2-thienyl}carbonyl)pyrimidin-4-yl]amino}-2-hydroxycyclopentyl]methyl sulfamate] here?
A: The value was 94%.

Q: What about the IC50 (SAE inhibition, class symbols, legend in nM) of the same compound?
A: Its IC50 is < 10 nM.

Q: With `NS(=O)(=O)OC[C@H]1C[C@@H](Nc2ncncc2C(=O)c2cc([C@@H]3NCCc4ccc(Cl)nc43)c(Cl)s2)C[C@@H]1O` (single isomer, unassigned) [I-253a, [(1R,2S,4R)-4-{[5-({5-chloro-4-[(8S)-2-chloro-5,6,7,8-tetrahydro-1,7-naphthyridin-8-yl-2-thienyl}carbonyl)pyrimidin-4-yl]amino}-2-hydroxycyclopentyl]methyl sulfamate or ((1R,2S,4R)-4-{([5-({5-chloro-4-[(8R)-2-chloro-5,6,7,8-tetrahydro-1,7-naphthyridin-8-yl]-2-thienyl}carbonyl)pyrimidin-4-yl]amino}-2-hydroxycyclopentyl]methyl sulfamate] as the compound, how does the “Percent Inhibition” value (Concentration 0.111 μM) read?
A: Its value is 99.

Q: What about the IC50 (class symbols A/B/C) of the same compound?
A: Its IC50 is < 10 nM.

Q: For `CN(C)C(c1cccc(Cl)c1)c1csc(C(=O)c2cncnc2NC2CC(O)C(COS(N)(=O)=O)C2)c1` (mixture of isomers) [I-153, [(1R,2S,4R)-4-{[5-({4-[(R)-(3-Chlorophenyl)(dimethylamino)methyl]-2-thienyl}carbonyl)pyrimidin-4-yl]amino}-2-hydroxycyclopentyl]methyl sulfamate and [(1R,2S,4R)-4-{[5-({4-[(S)-(3-chlorophenyl)(dimethylamino)methyl]-2-thienyl}carbonyl)pyrimidin-4-yl]amino}-2-hydroxycyclopentyl]methyl sulfamate], which “Percent Inhibition” value (Concentration 0.111 μM) is on record?
A: The value was 86.

Q: What about the IC50 (class symbols A/B/C) of the same compound?
A: The IC50 was 10 to 100 nM.

Q: `NS(=O)(=O)OC[C@H]1C[C@@H](Nc2ncncc2C(=O)c2ccc(Cc3ccccc3)o2)C[C@@H]1O` [I-127, [(1R,2S,4R)-4-{[5-(5-benzyl-2-furoyl)pyrimidin-4-yl]amino}-2-hydroxycyclopentyl]methyl sulfamate] was tested. Which inhibition at 0.111 µM (Concentration 0.111 μM) did it give?
A: Its inhibition at 0.111 µM is 95%.

Q: And the IC50 (class symbols A/B/C)?
A: Its IC50 is < 10 nM.

Q: `NS(=O)(=O)OC[C@H]1C[C@@H](Nc2ncncc2C(=O)c2cc([C@@H]3NCCc4ccc(Cl)nc43)c(Cl)s2)C[C@@H]1O.NS(=O)(=O)OC[C@H]1C[C@@H](Nc2ncncc2C(=O)c2cc([C@H]3NCCc4ccc(Cl)nc43)c(Cl)s2)C[C@@H]1O` (mixture of isomers) [I-253, [(1R,2S,4R)-4-{[5-({5-chloro-4-[(8S)-2-chloro-5,6,7,8-tetrahydro-1,7-naphthyridin-8-yl]-2-thienyl}carbonyl)pyrimidin-4-yl]amino}-2-hydroxycyclopentyl]methyl sulfamate and [(1R,2S,4R)-4-{[5-({5-chloro-4-[(8R)-2-chloro-5,6,7,8-tetrahydro-1,7-naphthyridin-8-yl]-2-thienyl}carbonyl)pyrimidin-4-yl]amino}-2-hydroxycyclopentyl]methyl sulfamate] was tested. Which “Percent Inhibition” value (Concentration 0.111 μM) did it give?
A: The value was 100.

Q: And the IC50 (class symbols A/B/C)?
A: Its IC50 is < 10 nM.
